{
  "source": "patent US20090253799A1",
  "about": "(priority 2008, published 2009)",
  "origin": "cited, not measured here",
  "target": "T1, wildtype CFTR (Homo sapiens, UniProt P13569)",
  "T1 construct": "expressed in transfected cells",
  "T1 sequence (P13569 whole entry)": "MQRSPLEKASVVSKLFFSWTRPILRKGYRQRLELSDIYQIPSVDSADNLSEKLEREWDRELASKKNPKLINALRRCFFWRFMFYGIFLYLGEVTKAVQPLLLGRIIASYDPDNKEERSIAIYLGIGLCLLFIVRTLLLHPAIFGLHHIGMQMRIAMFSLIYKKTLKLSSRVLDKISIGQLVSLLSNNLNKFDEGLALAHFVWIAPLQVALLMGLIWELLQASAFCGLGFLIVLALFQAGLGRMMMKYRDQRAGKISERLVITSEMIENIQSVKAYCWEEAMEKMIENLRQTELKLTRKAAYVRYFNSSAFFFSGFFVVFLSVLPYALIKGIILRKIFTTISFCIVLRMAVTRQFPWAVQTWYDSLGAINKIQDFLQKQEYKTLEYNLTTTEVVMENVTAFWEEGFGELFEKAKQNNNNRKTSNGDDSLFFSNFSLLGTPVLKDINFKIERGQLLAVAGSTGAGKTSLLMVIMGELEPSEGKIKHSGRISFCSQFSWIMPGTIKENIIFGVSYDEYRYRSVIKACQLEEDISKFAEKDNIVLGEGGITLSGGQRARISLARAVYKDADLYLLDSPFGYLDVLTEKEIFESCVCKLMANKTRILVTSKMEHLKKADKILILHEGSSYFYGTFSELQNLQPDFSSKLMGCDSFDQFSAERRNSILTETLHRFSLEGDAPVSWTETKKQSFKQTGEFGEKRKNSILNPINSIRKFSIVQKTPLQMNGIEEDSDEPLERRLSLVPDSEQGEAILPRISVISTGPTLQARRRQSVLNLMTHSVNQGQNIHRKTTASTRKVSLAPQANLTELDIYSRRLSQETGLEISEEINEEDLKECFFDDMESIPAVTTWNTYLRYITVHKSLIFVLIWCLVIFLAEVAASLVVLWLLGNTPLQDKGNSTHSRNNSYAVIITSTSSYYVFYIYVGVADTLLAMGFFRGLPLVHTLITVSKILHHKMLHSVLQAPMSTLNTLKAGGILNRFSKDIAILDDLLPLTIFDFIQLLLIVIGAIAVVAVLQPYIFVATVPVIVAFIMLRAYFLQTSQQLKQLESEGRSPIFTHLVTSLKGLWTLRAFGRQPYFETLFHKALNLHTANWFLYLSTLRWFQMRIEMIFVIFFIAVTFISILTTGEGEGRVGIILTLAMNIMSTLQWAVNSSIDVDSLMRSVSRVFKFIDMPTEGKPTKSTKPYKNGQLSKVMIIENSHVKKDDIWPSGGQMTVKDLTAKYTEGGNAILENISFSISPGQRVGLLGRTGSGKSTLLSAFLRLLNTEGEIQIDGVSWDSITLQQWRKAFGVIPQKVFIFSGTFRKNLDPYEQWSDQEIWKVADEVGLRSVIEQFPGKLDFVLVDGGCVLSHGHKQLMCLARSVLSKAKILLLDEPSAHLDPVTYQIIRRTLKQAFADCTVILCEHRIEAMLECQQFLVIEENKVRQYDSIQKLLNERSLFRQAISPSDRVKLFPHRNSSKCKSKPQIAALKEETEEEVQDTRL",
  "settings": "Muanprasat et al. 2004",
  "data": [
    {"smiles": "O=C(CNc1ccc2ccccc2c1)N/N=C/c1cc(Br)c(O)c(Br)c1O", "note": "[GlyH-101]", "values": [
      {"measurement": "time constants for block and unblock", "value": "8 to 10", "unit": "ms"}
    ]}
  ]
}
